The target of one experiment is c-kit kinase (Homo sapiens (Human), UniProt P10721). Briefly: c-Kit biochemical assay (AlphaScreen). As to conditions: c-kit biochemical inhibitory activity. In outline:
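AlphaScreen of biotin-(E4Y)3 (100 nM) phosphorylation by c-kit (0.1 ng) in HEPES pH 7.2, Mg/Mn, 10 μM ATP, 5% DMSO, 1 h at room temperature; variant uses 100 μM ATP, 30 nM biotin-(E4Y)10, 1 ng enzyme. PY20 acceptor/streptavidin donor signal versus 8-point concentration gives IC50.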

Experiment [1] has as its system BaF3-FL KIT D816V or BaF3-FL KIT V560G/D816V cell line. In words: Cell-based assays of c-Kit mutant kinase activity (cell growth, ATPlite). As to conditions: at least one of the c-kit cell assays of Example 26. In outline:
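IC50 derived from ATP-content luminescence (ATPlite) after three-day compound exposure at 37° C., 5% CO2. Cells: BaF3 rendered growth-dependent on full-length human KIT D816V or V560G/D816V, 1×10^4 per well, RPMI plus 10% FBS; 8 points, 1:3 steps, maximum 10 μM final, 0.2% DMSO.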

Sequence of c-kit kinase (P10721 26-976): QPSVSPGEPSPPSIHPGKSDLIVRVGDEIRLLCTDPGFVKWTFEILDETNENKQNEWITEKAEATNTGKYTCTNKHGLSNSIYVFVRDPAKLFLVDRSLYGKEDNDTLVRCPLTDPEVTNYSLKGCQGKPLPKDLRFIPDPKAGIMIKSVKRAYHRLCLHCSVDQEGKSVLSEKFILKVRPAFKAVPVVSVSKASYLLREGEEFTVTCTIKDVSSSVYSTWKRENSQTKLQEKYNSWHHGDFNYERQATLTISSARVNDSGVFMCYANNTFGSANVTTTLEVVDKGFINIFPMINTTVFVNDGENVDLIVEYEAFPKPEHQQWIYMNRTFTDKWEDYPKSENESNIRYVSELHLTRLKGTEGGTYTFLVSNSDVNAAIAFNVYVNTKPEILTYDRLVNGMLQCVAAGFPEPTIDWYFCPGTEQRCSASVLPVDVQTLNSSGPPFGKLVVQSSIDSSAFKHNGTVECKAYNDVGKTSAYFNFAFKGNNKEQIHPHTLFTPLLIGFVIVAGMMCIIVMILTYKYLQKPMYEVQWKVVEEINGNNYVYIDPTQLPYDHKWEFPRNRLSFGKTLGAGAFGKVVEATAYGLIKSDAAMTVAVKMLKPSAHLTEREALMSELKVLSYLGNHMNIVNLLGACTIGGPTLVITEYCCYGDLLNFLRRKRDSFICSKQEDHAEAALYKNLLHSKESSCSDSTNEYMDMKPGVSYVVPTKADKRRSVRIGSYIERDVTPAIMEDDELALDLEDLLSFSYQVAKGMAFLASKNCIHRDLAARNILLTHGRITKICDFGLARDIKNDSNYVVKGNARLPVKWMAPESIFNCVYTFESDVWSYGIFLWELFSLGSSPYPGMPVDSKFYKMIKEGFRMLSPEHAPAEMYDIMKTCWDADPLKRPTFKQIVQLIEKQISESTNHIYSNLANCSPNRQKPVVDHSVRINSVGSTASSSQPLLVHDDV

For `Cc1n[nH]c(C(=O)Nc2cnc3[nH]c(-c4ccc(F)cc4OC(F)F)cc3c2)c1C` [P-2268, N-[2-[2-(difluoromethoxy)-4-fluoro-phenyl]-1H-pyrrolo[2,3-b]pyridin-5-yl]-3,4-dimethyl-1H-pyrazole-5-carboxamide], the IC50 at c-kit kinase was 1 to 10 µM; in experiment [1] it was less than 10 µM.
The corresponding values for `Cc1n[nH]c(C(=O)Nc2cnc3[nH]c(-c4cncc(C#N)c4)cc3c2)c1C` [P-2270, N-[2-(5-cyano-3-pyridyl)-1H-pyrrolo[2,3-b]pyridin-5-yl]-3,4-dimethyl-1H-pyrazole-5-carboxamide] are 10 to 200 µM and less than 10 µM.
As for `Cc1n[nH]c(C(=O)Nc2cnc3[nH]c(C4=CCOCC4)cc3c2)c1C` [P-2271, N-[2-(3,6-dihydro-2H-pyran-4-yl)-1H-pyrrolo[2,3-b]pyridin-5-yl]-3,4-dimethyl-1H-pyrazole-5-carboxamide], the IC50 at c-kit kinase is 0.0001 to 1 µM; in experiment [1] it was less than 10 µM.
Turning to `Cc1n[nH]c(C(=O)Nc2cnc3[nH]c(-c4cnccc4C(N)=O)cc3c2)c1C` [P-2272, 3-[5-[(3,4-dimethyl-1H-pyrazole-5-carbonyl)amino]-1H-pyrrolo[2,3-b]pyridin-2-yl]pyridine-4-carboxamide], the IC50 was 10 to 200 µM at c-kit kinase and less than 10 µM in experiment [1].
The corresponding values for `Cc1n[nH]c(C(=O)Nc2cnc3[nH]c(-c4cccc5c4OCC5)cc3c2)c1C` [P-2273, N-[2-(2,3-dihydrobenzofuran-7-yl)-1H-pyrrolo[2,3-b]pyridin-5-yl]-3,4-dimethyl-H-pyrazole-5-carboxamide] are 10 to 200 µM and less than 10 µM.
As for `Cc1n[nH]c(C(=O)Nc2cnc3[nH]c(-c4cccc(N5CCNCC5)c4)cc3c2)c1C` [P-2274, 3,4-dimethyl-N-[2-(3-piperazin-1-ylphenyl)-1H-pyrrolo[2,3-b]pyridin-5-yl]-1H-pyrazole-5-carboxamide], the IC50 at c-kit kinase was 0.0001 to 1 µM; in experiment [1], less than 10 µM.
For `Cc1cc(Cl)ccc1-c1cc2cc(NC(=O)c3[nH]nc(C)c3C)cnc2[nH]1` [P-2277, N-[2-(4-chloro-2-methyl-phenyl)-1H-pyrrolo[2,3-b]pyridin-5-yl]-3,4-dimethyl-1H-pyrazole-5-carboxamide] the same measures were 10 to 200 µM and less than 10 µM.
For `Cc1n[nH]c(C(=O)Nc2cnc3[nH]c(-c4ccncc4Cl)cc3c2)c1C` [P-2278, N-[2-(3-chloro-4-pyridyl)-H-pyrrolo[2,3-b]pyridin-5-yl]-3,4-dimethyl-1H-pyrazole-5-carboxamide] the same measures were 10 to 200 µM and less than 10 µM.
The corresponding values for `Cc1n[nH]c(C(=O)Nc2cnc3[nH]c(-c4ccc(F)nc4F)cc3c2)c1C` [P-2280, N-[2-(2,6-difluoro-3-pyridyl)-1H-pyrrolo[2,3-b]pyridin-5-yl]-3,4-dimethyl-1H-pyrazole-5-carboxamide] are 10 to 200 µM and less than 10 µM.
On to `Cc1n[nH]c(C(=O)Nc2cnc3[nH]c(-c4cccc5c4OC(F)(F)O5)cc3c2)c1C` [P-2281, N-[2-(2,2-difluoro-1,3-benzodioxol-4-yl)-1H-pyrrolo[2,3-b]pyridin-5-yl]-3,4-dimethyl-1H-pyrazole-5-carboxamide], for which the results for the IC50 (on c-kit kinase; in experiment [1]) were 10 to 200 µM and less than 10 µM, respectively.
In the case of `Cc1cc(-c2cc3cc(NC(=O)c4[nH]nc(C)c4C)cnc3[nH]2)cnc1C` [P-2282, N-[2-(5,6-dimethyl-3-pyridyl)-1H-pyrrolo[2,3-b]pyridin-5-yl]-3,4-dimethyl-1H-pyrazole-5-carboxamide], the IC50 was 1 to 10 µM against c-kit kinase and less than 10 µM in experiment [1].
For the compound `COc1ccc(-c2cc3cc(NC(=O)c4[nH]nc(C)c4C)cnc3[nH]2)c(C)c1C` [P-2284, N-[2-(4-methoxy-2,3-dimethyl-phenyl)-1H-pyrrolo[2,3-b]pyridin-5-yl]-3,4-dimethyl-1H-pyrazole-5-carboxamide], the figures for the IC50 (against c-kit kinase; in experiment [1]) were 1 to 10 µM and less than 10 µM, respectively.
The corresponding values for `Cc1nn(C2CN(C(=O)OC(C)(C)C)C2)cc1-c1cc2cc(NC(=O)c3[nH]nc(C)c3C)cnc2[nH]1` [P-2285, tert-butyl 3-[4-[5-[(3,4-dimethyl-1H-pyrazole-5-carbonyl)amino]-1H-pyrrolo[2,3-b]pyridin-2-yl]-3-methyl-pyrazol-1-yl]azetidine-1-carboxylate] are 0.0001 to 1 µM and less than 10 µM.
The corresponding values for `Cc1nn(C2CNC2)cc1-c1cc2cc(NC(=O)c3[nH]nc(C)c3C)cnc2[nH]1` [P-2286, N-[2-[1-(azetidin-3-yl)-3-methyl-pyrazol-4-yl]-1H-pyrrolo[2,3-b]pyridin-5-yl]-3,4-dimethyl-1H-pyrazole-5-carboxamide] are 0.0001 to 1 µM and less than 10 µM.
Take `O=C(Nc1cnc2[nH]c(-c3ccccc3)cc2c1)c1cccc2n[nH]cc12` [P-2289, N-(2-phenyl-1H-pyrrolo[2,3-b]pyridin-5-yl)-2H-indazole-4-carboxamide]: the IC50 on c-kit kinase is 0.0001 to 1 µM; in experiment [1], less than 10 µM.
For `COC(=O)c1cccc(C(=O)Nc2cnc3[nH]c(-c4ccccc4)cc3c2)c1` [P-2290, methyl 3-[(2-phenyl-1H-pyrrolo[2,3-b]pyridin-5-yl)carbamoyl]benzoate] the same measures were 10 to 200 µM and less than 10 µM.
`O=C(O)c1cccc(C(=O)Nc2cnc3[nH]c(-c4ccccc4)cc3c2)c1` [P-2291, 3-[(2-phenyl-1H-pyrrolo[2,3-b]pyridin-5-yl)carbamoyl]benzoic acid]: the IC50 against c-kit kinase was 10 to 200 µM; in experiment [1], less than 10 µM.
The corresponding values for `Cc1n[nH]c(C(=O)Nc2cnc3[nH]c(-c4ccc(C(=O)O)c(F)c4)cc3c2)c1C` [P-2292, 4-[5-[(3,4-dimethyl-1H-pyrazole-5-carbonyl)amino]-1H-pyrrolo[2,3-b]pyridin-2-yl]-2-fluoro-benzoic acid] are 0.0001 to 1 µM and less than 10 µM.
Consider `Cc1n[nH]c(C(=O)Nc2cnc3[nH]c(-c4cccc(CC(=O)O)c4)cc3c2)c1C` [P-2293, 2-[3-[5-[(3,4-dimethyl-1H-pyrazole-5-carbonyl)amino]-1H-pyrrolo[2,3-b]pyridin-2-yl]phenyl]acetic acid], for which the IC50 at c-kit kinase was 0.0001 to 1 µM; in experiment [1], less than 10 µM.
The corresponding values for `Cc1n[nH]c(C(=O)Nc2cnc3[nH]c(-c4ccc(C5(C(=O)O)CC5)cc4)cc3c2)c1C` [P-2294, 1-[4-[5-[(3,4-dimethyl-1H-pyrazole-5-carbonyl)amino]-1H-pyrrolo[2,3-b]pyridin-2-yl]phenyl]cyclopropanecarboxylic acid] are 0.0001 to 1 µM and less than 10 µM.
The corresponding values for `Cc1n[nH]c(C(=O)Nc2cnc3[nH]c(-c4ccc(CC(=O)O)cc4)cc3c2)c1C` [P-2295, 2-[4-[5-[(3,4-dimethyl-1H-pyrazole-5-carbonyl)amino]-1H-pyrrolo[2,3-b]pyridin-2-yl]phenyl]acetic acid] are 0.0001 to 1 µM and less than 10 µM.
For `Cc1cc(-c2cc3cc(NC(=O)c4[nH]nc(C)c4C)cnc3[nH]2)ccc1C(=O)O` [P-2296, 4-[5-[(3,4-dimethyl-1H-pyrazole-5-carbonyl)amino]-1H-pyrrolo[2,3-b]pyridin-2-yl]-2-methyl-benzoic acid] the same measures were 0.0001 to 1 µM and less than 10 µM.
Regarding `Cc1n[nH]c(C(=O)Nc2cnc3[nH]c(-c4cccc(C(=O)O)c4C)cc3c2)c1C` [P-2297, 3-[5-[(3,4-dimethyl-1H-pyrazole-5-carbonyl)amino]-1H-pyrrolo[2,3-b]pyridin-2-yl]-2-methyl-benzoic acid], the IC50 against c-kit kinase was 0.0001 to 1 µM; in experiment [1], less than 10 µM.

These data come from patent US10301280B2 (Plexxikon Inc., priority 2012, dated 2019).
